Patent US8293256B2, “Sulfamide derivatives and cosmetic use thereof” (L'Oreal, priority 2004, dated 2012)

Key:
[1] = system: stratum corneum; test: Transepidermal Water Loss (TWL) across isolated defatted stratum corneum (Evaporimeter EP1); details: 40% relative humidity, 30° C., 3% aqueous solution (compounds 9 and 15 in isopropyl N-lauroyl sarcosinate), mean ± standard deviation, 8 samples
Method: (§1) Two tests were performed to evaluate the moisturizing potential of the compounds of the invention formulated in an aqueous 3% solution (except for compounds 9 and 15, which were evaluated in a solution of isopropyl N-lauroyl sarcosinate).
Transepidermal Water Loss (TWL), evaluation of the changes in barrier function of the stratum corneum.
Transepidermal water loss is a physiological phenomenon of diffusion of water vapour across the horny layer. It results from the presence of a high pressure gradient of water vapour between the internal and external media of the body. The TWL depends on the integrity of the barrier function of the stratum corneum. The machine evaluating the TWL (Evaporimeter EP1, Servomed) measures the flow of water that diffuses passively across the stratum corneum (g/m^2/h).
The isolated stratum is placed (inner face) on a water tank and equilibrated in a room regulated at 40% relative humidity (T=30° C.). Before the measurement, the stratum corneum is defatted via a two-hour treatment in a mixture of chloroform and methanol (2 v/lv). For each measurement, the TWL is measured on the stratum corneum before treatment and then 2 and 20 hours after application of the treatment. […] The measurements are analysed in pairs. […]
The mean and the standard deviation were calculated on 8 samples distributed over 2 batches of stratum corneum.

[2] = system: stratum corneum; test: Dermometer: mechanical measurement of the plasticizing effect (modulus of elasticity); details: 30° C., 75% relative humidity, 3% aqueous solution (compounds 9 and 15 in isopropyl N-lauroyl sarcosinate), mean ± standard deviation, 6 to 10 samples
Method: as §1
Dermometer, mechanical measurement of the plasticizing effect (described by J. de Rigal, J-L. Leveque, International Journal of Cosmetic Science, 1982, 247-260),
The tests carried out were performed under standard conditions on stratum corneum in a room with regulated temperature and humidity (T=30° C. and RH=75%). The modulus of elasticity measurements are performed on each control specimen and then 2 hours and 20 hours after application of the treatment. The relative variation in the modulus allows assessment of the plasticizing effect of the active agent on the stratum corneum.
The mean and the standard deviation were calculated on 6 to 10 samples.

| Compound | melting point [°C] | Relative variation of the TWL measurements ([1]; 2 h after application) [%] | Relative variation of the TWL measurements ([1]; 20 h after application) [%] | Relative variation in the modulus of elasticity of stratum corneum ([2]; 2 h after application) [%] | Relative variation in the modulus of elasticity of stratum corneum ([2]; 20 h after application) [%] |
| --- | --- | --- | --- | --- | --- |
| C[Si](C)(C)C(NS(N)(=O)=O)[Si](C)(C)C | 76 to 77.5 |  |  |  |  |
| NC(N)=O [3% urea in water, urea] |  | 64.3 ± 26.9 | 48.3 ± 24.5 | −72 ± 9 | −83 ± 7 |
| NS(=O)(=O)NCCOS(N)(=O)=O [Compound 17, 2-[(aminosulfonyl)amino]ethyl sulfamate] | 78 to 82 |  |  |  |  |
